Experimental data reported in patent US7423030B2, “1-amino-phthalazine derivatives, the preparation and the therapeutic use thereof” (Sanofi-Aventis, priority 2004, dated 2008).
Structures can show the parent of a compound that is named as a salt.

melting point [°C]	SMILES
280	COc1ccc(-c2nnc(N[C@H]3CCN(Cc4ccc5ccccc5c4)C3)c3cc(OC)ccc23)cc1 (as salt: HCl) (hydrate or solvate) [Compound 96, 4-(4-Methoxyphenyl)-7-methoxy-N-[(3S)-1-(naphthalen-2-ylmethyl)pyrrolidin-3-yl]phthalazin-1-amine]
131	COc1ccc2c(-c3ccc(OC)c(OC)c3)nnc(NC3CCN(Cc4ccc5ccccc5c4)CC3)c2c1 (as salt: salt) (hydrate or solvate) [Compound 10, 4-(3,4-Dimethoxyphenyl)-7-methoxy-N-[1-(naphthalen-2-ylmethyl)piperidin-4-yl]phthalazin-1-amine]
102	COc1ccc2c(CO)nnc(NC3CCN(Cc4ccc5ccccc5c4)CC3)c2c1 [Example 48, 4-Hydroxymethyl-7-methoxy-N-[1-(naphthalen-2-ylmethyl)piperidin-4-yl]phthalazin-1-amine]
241	COc1ccc(-c2nnc(NC3CCN(Cc4ccc(C(C)=O)cc4)CC3)c3cc(OC)ccc23)cc1 (as salt: HCl) (hydrate or solvate) [Compound 121, 1-{4-[(4-{[7-methoxy-4-(4-methoxyphenyl)phthalazin-1-yl]amino}piperidin-1-yl)methyl]phenyl}ethanone]
255	COc1ccc(-c2nnc(NC3CCN(Cc4ccc(NC(C)=O)cc4)CC3)c3cc(OC)ccc23)cc1.Cl.Cl (hydrate or solvate)
176	COc1cccc(-c2nnc(NC3CCN(Cc4ccccc4)CC3)c3cc(OC)ccc23)c1 (as salt: salt) (hydrate or solvate) [Compound 6, N-(1-benzylpiperidin-4-yl)-7-methoxy-4-(3-methoxyphenyl)phthalazin-1-amine]
257	COc1ccc(-c2nnc(NC3CCN(Cc4c[nH]c5ccccc45)CC3)c3cc(OC)ccc23)cc1 (as salt: salt) (hydrate or solvate) [Compound 65, N-[1-(1H-indol-3-ylmethyl)piperidin-4-yl]-7-methoxy-4-(4-methoxyphenyl)phthalazin-1-amine]
150	COc1ccc(-c2nnc(NC3CCN(Cc4ccccc4)CC3)c3cc(OC)ccc23)cc1 (as salt: salt) (hydrate or solvate) [Compound 7, N-(1-benzylpiperidin-4-yl)-7-methoxy-4-(4-methoxyphenyl)phthalazin-1-amine]
284	COc1ccc(-c2nnc(NC3CCN(Cc4ccc(CN)cc4)CC3)c3cc(OC)ccc23)cc1.Cl.Cl.Cl (hydrate or solvate)
239	COc1ccc2c(COc3ccccc3)nnc(NC3CCN(Cc4ccc5ccccc5c4)CC3)c2c1.Cl.Cl (hydrate or solvate)
121	COc1ccc2c(-c3ccccc3)nnc(NC3CCN(Cc4ccc5ccccc5c4)CC3)c2c1 (as salt: salt) (hydrate or solvate) [Compound 1, 7-methoxy-N-[1-(naphthalen-2-ylmethyl)piperidin-4-yl]-4-phenylphthalazin-1-amine]
222	COc1ccc(-c2nnc(NC3CCN(Cc4ccc(CN5CCCC5)cc4)CC3)c3cc(OC)ccc23)cc1.Cl.Cl.Cl (hydrate or solvate)
176	COc1ccc(-c2nnc(NC3CC4CCC(C3)N4Cc3ccc4ccccc4c3)c3cc(OC)ccc23)cc1 (stereo not drawn) (as salt: salt) (hydrate or solvate)
281	COc1ccc(-c2nnc(NC3CCN(Cc4ccc5[nH]ccc5c4)CC3)c3cc(OC)ccc23)cc1 (as salt: salt) (hydrate or solvate) [Compound 87, N-[1-(1H-indol-5-ylmethyl)piperidin-4-yl]-7-methoxy-4-(4-methoxyphenyl)phthalazin-1-amine]
230	COc1ccc(-c2nnc(NC3CCN(Cc4ccc5ccccc5c4)CC3)c3cc(Cl)ccc23)cc1.Cl.Cl (hydrate or solvate)
206	COc1cc(OC)c2cnnc(NC3CCN(Cc4ccc5ccccc5c4)CC3)c2c1 (as salt: salt) (hydrate or solvate) [Compound 14, 5,7-dimethoxy-N-[1-(naphthalen-2-ylmethyl)piperidin-4-yl]phthalazin-1-amine]

Continued, molecule first:

SMILES	melting point [°C]
COC(=O)c1ccc(CN2CCC(Nc3nnc(-c4ccc(OC)cc4)c4ccc(OC)cc34)CC2)cc1 (as salt: HCl) (hydrate or solvate) [Compound 107, methyl {4-[(4-{[7-methoxy-4-(4-methoxyphenyl)phthalazin-1-yl]amino}piperidin-1-yl)methyl]phenyl}carboxylate]	241
COc1ccc(-c2nnc(NC3CCN(Cc4cccc(C#N)c4)CC3)c3cc(OC)ccc23)cc1 (as salt: salt) (hydrate or solvate) [Compound 18, N-[1-(3-cyanophenylmethyl)-piperidin-4-yl]-7-methoxy-4-(4-methoxyphenyl)phthalazin-1-amine]	115
COc1ccc(-c2nnc(NC3CCN(Cc4ccc5occc5c4)CC3)c3cc(OC)ccc23)cc1 (as salt: salt) (hydrate or solvate) [Compound 26, N-[1-(1-benzofuran-5-ylmethyl)piperidin-4-yl]-7-methoxy-4-(4-methoxyphenyl)phthalazin-1-amine]	160
COc1ccc(-c2nnc(NC3CCN(Cc4ccc(NC=O)cc4)CC3)c3cc(OC)ccc23)cc1.Cl.Cl (hydrate or solvate)	293
COc1ccc2c(-c3ccc(Br)cc3)nnc(NC3CCN(Cc4ccc5ccccc5c4)CC3)c2c1.Cl.Cl (hydrate or solvate)	246
COc1ccc(-c2nnc(NC3CCN(Cc4ccc5c(c4)OCO5)CC3)c3cc(OC)ccc23)cc1.Cl.Cl (hydrate or solvate)	235
COc1ccc(OC)c(-c2nnc(NC3CCN(Cc4ccc5c(c4)OCO5)CC3)c3cc(OC)ccc23)c1.Cl.Cl (hydrate or solvate)	272
CCc1nnc(NC2CCN(Cc3ccc4ccccc4c3)CC2)c2cc(OC)cc(OC)c12 (as salt: salt) (hydrate or solvate) [Compound 23, 5,7-Dimethoxy-4-ethyl-N-[1-(naphthalen-2-ylmethyl)piperidin-4-yl]phthalazin-1-amine]	250
COc1ccc(-c2nnc(NC3CCN(Cc4ccc5ncsc5c4)CC3)c3cc(OC)ccc23)cc1 (as salt: salt) (hydrate or solvate) [Compound 59, N-[1-(1,3-benzothiazol-6-ylmethyl)piperidin-4-yl]-7-methoxy-4-(4-methoxyphenyl)phthalazin-1-amine]	180
COc1ccc2c(-c3cccnc3)nnc(NC3CCN(Cc4ccc5ccccc5c4)CC3)c2c1.Cl.Cl.Cl (hydrate or solvate)	225
COc1ccc2cnnc(NC3CCN(Cc4ccc5ccccc5c4)CC3)c2c1 (as salt: HCl) (hydrate or solvate) [Compound 70, 7-methoxy-N-[1-(2-naphthylmethyl)piperidin-4-yl]-phthalazin-1-amine]	189
COc1ccc(-c2nnc(NC3CCN(Cc4ccc5c(ccn5C)c4)CC3)c3cc(OC)ccc23)cc1 (as salt: salt) (hydrate or solvate) [Compound 100, 7-methoxy-4-(4-methoxyphenyl)-N-{1-[(1-methyl-1H-indol-5-yl)methyl]piperidin-4-yl}phthalazin-1-amine]	161
COc1cc(OC)c2c(Cc3ccccc3)nnc(NC3CCN(Cc4ccc5ccccc5c4)CC3)c2c1 [Compound 22, 4-Benzyl-5,7-dimethoxy-N-[1-(naphthalen-2-ylmethyl)piperidin-4-yl]phthalazin-1-amine]	163
COc1ccc(OC)c(-c2nnc(NC3CCN(Cc4ccc5ncsc5c4)CC3)c3cc(OC)ccc23)c1 (as salt: salt) (hydrate or solvate) [Compound 135, N-[1-(1,3-benzothiazol-6-ylmethyl)piperidin-4-yl]-4-(2,5-dimethoxyphenyl)-7-methoxyphthalazin-1-amine]	193
COc1ccc(-c2nnc(NC3CCN(Cc4ccc(CN)cc4)CC3)c3cc(OC)ccc23)cc1.Cl.Cl.Cl	203
COc1ccc2c(COCc3ccccc3)nnc(NC3CCN(Cc4ccc5ccccc5c4)CC3)c2c1.Cl.Cl	284
COc1ccc2c(-c3ccccc3OC)nnc(NC3CCN(Cc4ccc5ccccc5c4)CC3)c2c1 (as salt: salt) (hydrate or solvate) [Compound 2, 7-methoxy-4-(2-methoxyphenyl)-N-[1-(naphthalen-2-ylmethyl)piperidin-4-yl]phthalazin-1-amine]	158
COc1ccc(-c2nnc(NC3CCN(Cc4ccc5ccccc5c4)CC3)c3cc(C)ccc23)cc1 (as salt: salt) (hydrate or solvate) [Compound 9, 4-(4-methoxyphenyl)-7-methyl-N-[1-(naphthalen-2-ylmethyl)piperidin-4-yl]phthalazin-1-amine]	198
Cl.Cl.c1ccc(-c2ccc3c(-c4ccccc4)nnc(NC4CCN(Cc5ccc6ccccc6c5)CC4)c3c2)cc1 (hydrate or solvate)	224
COc1ccc(-c2nnc(NC3CCN(C/C=C/c4ccccc4)CC3)c3cc(OC)ccc23)cc1.Cl.Cl (hydrate or solvate)	210
COc1ccc(-c2nnc(NC3CCN(Cc4ccc5ccccc5c4)CC3)c3cc(OC)ccc23)cc1 (as salt: salt) (hydrate or solvate) [Compound 3, 7-methoxy-4-(4-methoxyphenyl)-N-[1-(naphthalen-2-ylmethyl)piperidin-4-yl]phthalazin-1-amine]	195
COc1ccc2c(CO)nnc(NC3CCN(Cc4ccc5ccccc5c4)CC3)c2c1 (as salt: HCl) (hydrate or solvate) [Compound 148, 4-Hydroxymethyl-7-methoxy-N-[1-(naphthalen-2-ylmethyl)piperidin-4-yl]phthalazin-1-amine]	186
COc1ccc2c(Cc3ccccc3)nnc(NC3CCN(Cc4ccc5ccccc5c4)CC3)c2c1 (as salt: salt) (hydrate or solvate) [Compound 21, 4-Benzyl-7-methoxy-N-[1-(naphthalen-2-ylmethyl)piperidin-4-yl]phthalazin-1-amine]	104
